These are literature values, as cited in publication PMC12007609 (International Journal of Nanomedicine, 2025).

By Km is commonly meant the substrate concentration at which the rate is half of its maximum.

In the data set the test system is GLUT2. The settings on record: GLUT2 transport.
As for `O=C(CO)[C@@H](O)[C@H](O)[C@H](O)CO` [fructose], the Km is around 76 mM.
In the case of `O=C[C@H](O)[C@@H](O)[C@@H](O)[C@H](O)CO` [galactose], the Km was around 92 mM.
On to `OC[C@H]1OC(O)[C@H](O)[C@@H](O)[C@@H]1O` (stereo partly drawn) [glucose], for which the Michaelis-Menten constant (Km) was around 17 mM.
